Measurements as given in article PMC7756341, “Liposomal FRET Assay Identifies Potent Drug‐Like Inhibitors of the Ceramide Transport Protein (CERT)” (Chemistry (Weinheim an Der Bergstrasse, Germany), 2020).

The molecules below were run against T1, CERT (Homo sapiens, UniProt Q9Y5P4) (assay: NR-ceramide fluorescence competition assay). Conditions: 1 μM Nile red ceramide.
T1 construct: made in house; host or cells: E. coli BL21 (DE3), pET-28a(+)
T1 sequence (Q9Y5P4 1-598 isoform Q9Y5P4-2): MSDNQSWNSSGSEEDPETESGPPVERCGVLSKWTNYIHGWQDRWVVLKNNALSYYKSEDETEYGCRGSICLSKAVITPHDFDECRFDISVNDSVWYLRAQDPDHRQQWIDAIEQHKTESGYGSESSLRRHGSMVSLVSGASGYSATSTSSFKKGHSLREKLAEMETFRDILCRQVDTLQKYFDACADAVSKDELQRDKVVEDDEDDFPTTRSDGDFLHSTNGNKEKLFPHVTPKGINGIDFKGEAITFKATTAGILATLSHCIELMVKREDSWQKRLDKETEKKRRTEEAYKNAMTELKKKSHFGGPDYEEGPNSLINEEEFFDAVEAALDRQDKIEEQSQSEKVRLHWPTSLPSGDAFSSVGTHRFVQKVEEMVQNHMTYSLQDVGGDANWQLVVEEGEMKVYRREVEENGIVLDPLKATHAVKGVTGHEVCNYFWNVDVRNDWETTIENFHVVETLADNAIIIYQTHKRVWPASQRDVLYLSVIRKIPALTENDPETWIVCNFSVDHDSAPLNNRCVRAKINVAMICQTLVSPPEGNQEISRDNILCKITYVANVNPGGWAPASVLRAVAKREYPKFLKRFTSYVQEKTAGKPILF
Format: binding
Text: Having the identified hits from CERT-transfer assay, we were interested in further understanding the relationship between the CERT-transfer inhibitory activity and CERT-binding affinity. With this goal in mind, we have developed a homogenous competitive assay based on the binding of fluorescently-labeled ceramide to CERT-protein (Fig S6). It’s well known that Nile Red is […]
than in hydrophilic one. Based on this knowledge, we have designed a fluorescently-labeled probe in which the Nile Red-tag was incorporated into the ceramide fatty acid moiety. The NR-ceramide […]
excellent signal-to-noise ratio (28-fold, Fig S7.A). Equilibration takes ~1h of incubation at 30°C.
Furthermore, this assay is a simple mix-and read format and uses only low amounts of fluorophore (1µM) and CERT-protein (12.5µg/assay).
The assay was performed in non-binding black-bottom 96-well microplate (Greiner Bio-One). To each well was added 1µL HPA12 (final concentration 2.5µM) or DMSO, followed by 98 µL of the CERT aliquot (12.5µg/well). After the mixture was incubated for 40 min at 30°C, 1µL NR-ceramide (final concentration 1µM) was added. Controls were triplicates of 10mM Tris.HCl buffer (pH 7.4, 250 mM sucrose) with 2µL DMSO, CERT aliquot (12.5µg/well) with 2µL DMSO, and 1µL NR-ceramide (final concentration 1µM) in 10mM Tris.HCl buffer (pH 7.4, 250 mM sucrose) with 1µL DMSO. The plate was then sealed with transparent Thermowell seal tape and placed in the microplate reader (LABTECH) at 30°C with shaking. The fluorescence was measured from the top over 80min (number of cycles 35, delay 70 sec) with excitation filter 540 nm and emission filter 640 nm. The competitive CERT-binding activity was calculated using the formula: Ix = I(À2-Y)/I0(À1-X), where À1 is the average of the florescence of the control of NR-ceramide in Tris.HCl buffer, X is the average of the fluorescence of the buffer alone, À2 is the fluorescence average of the assay mixture, Y is the fluorescence average of the CERT aliquot with inhibitor/DMSO (Fig […]
It is however lower than the differentiation in the transfer assay (Fig S8B).
3.2 High throughput screening for CERT-activity and Data analysis
In order to validate the performance of developed assay in high-throughput screening format, the hits from ‘confirmed-hit group’ (45 hits) were screened for their competitive CERT-binding activity. The assay was performed as mentioned in the previous sub-section 3.1. Briefly, 1µL tested compound (final concentration 1µM, 2.5µM, 5µM, 10µM) or DMSO for control, and 98 µL CERT stock solution were sequentially added into a non-binding 96-well microplate. The plate was sealed and incubated at 30°C for 40 min, before 1µL NR-ceramide (final concentration 1µM) was added.
Controls per plate were triplicates of 10mM Tris.HCl buffer (pH 7.4, 250 mM sucrose) with 2µL DMSO, CERT aliquot (12.5µg/well) with 2µL DMSO, 1µL NR-ceramide (final concentration 1µM) in 10mM Tris.HCl buffer (pH 7.4, 250 mM sucrose), and HPA12 as a reference inhibitor (final concentration of 1µM, and 2.5µM, 5µM). The plate was sealed with transparent Thermowell seal tape and the assay was allowed to proceed as described above using excitation filter 540 nm and emission filter 640 nm. The competitive CERT-binding activity was calculated using the formula: Ix = I(À2-Y)/I0(À1-X), where À1 is the average of the florescence of the control 1µL NR-ceramide in Tris.HCl buffer, X is the average of the fluorescence of the buffer alone, À2 is the average of the fluorescence of assay mixture treated with tested compound or DMSO, Y is the average of the fluorescence of CERT aliquot with inhibitor/DMSO.

SMILES | activity in the NR ceramide competition assay
CCCC(=O)OCOC(=O)C1=C(C)NC(C)=C(C(=O)OC)C1c1cccc(Cl)c1Cl (centres unmarked) [6B11, Clevidipine butyrate] | high activity
Cc1cc(C2=NOC(c3cc(Cl)cc(Cl)c3)(C(F)(F)F)C2)ccc1C(=O)NCC(=O)NCC(F)(F)F (centres unmarked) [20D5, Fluralaner] | high activity
CCCCCCCCCCCC(=O)NC(CO)CC(O)c1ccccc1 (centres unmarked) [HPA-12, N-(3Hydroxy-1-hydroxymethyl-3-phenylpropyl)-dodecamide] | reverted to approximately the initial value

The remaining lines, values ahead:

activity in the NR ceramide competition assay | SMILES
high activity | O=C(NC1CCN(CCCCC2(C(=O)NCC(F)(F)F)c3ccccc3-c3ccccc32)CC1)c1ccccc1-c1ccc(C(F)(F)F)cc1 [8E8, lomitapide]
very strong competition | CC1=NN(c2ccc(C)c(C)c2)C(=O)/C1=N\Nc1cccc(-c2cccc(C(=O)O)c2)c1O [17C9, Eltrombopag]
